Test results published in publication PMC5218480 (PLoS ONE, 2017).

Test system: MV-4-11 cells
Test: Gene expression microarray analysis (Affymetrix PrimeView) and GSEA
Type: cell-based, human
Design: RFU PODN (11730768_x_at) / Fold change /veh PODN (11730768_x_at) / RFU LINC00158 (11744669_a_at) / Fold change /veh LINC00158 (11744669_a_at) / RFU DUSP10 (11751237_a_at) / Fold change /veh DUSP10 (11751237_a_at) / RFU ID3 (11757404_x_at) / Fold change /veh ID3 (11757404_x_at) / RFU PLEKHG5 (11737974_s_at) / Fold change /veh PLEKHG5 (11737974_s_at) / RFU LRRC4B (11730491_at) / Fold change /veh LRRC4B (11730491_at) / RFU GIMAP4 (11747438_a_at) / Fold change /veh GIMAP4 (11747438_a_at) / RFU KRT8 (11758183_x_at) / Fold change /veh KRT8 (11758183_x_at) / RFU CNN1 (11734310_a_at) / Fold change /veh CNN1 (11734310_a_at) / RFU VPS37D (11726825_at) / Fold change /veh VPS37D (11726825_at) / RFU C10orf10 (11716522_x_at) / Fold change /veh C10orf10 (11716522_x_at) / RFU KIR2DL2 /// KIR2DL4 /// KIR2DL5A /// KIR2DL5B /// KIR2DS1 /// KIR2DS2 /// KIR2DS3 /// KIR2DS4 /// KIR3DL3 /// KIR3DL3 /// KIR3DS1 (11738374_at) / Fold change /veh KIR2DL2 /// KIR2DL4 /// KIR2DL5A /// KIR2DL5B /// KIR2DS1 /// KIR2DS2 /// KIR2DS3 /// KIR2DS4 /// KIR3DL3 /// KIR3DL3 /// KIR3DS1 (11738374_at) / RFU C1QL1 (11718748_at) / Fold change /veh C1QL1 (11718748_at) / RFU TMPRSS4 (11747572_a_at) / Fold change /veh TMPRSS4 (11747572_a_at) / RFU HAMP (11756126_x_at) / Fold change /veh HAMP (11756126_x_at) / RFU RNFT2 (11725882_a_at) / Fold change /veh RNFT2 (11725882_a_at) / RFU NR4A2 (11747474_a_at) / Fold change /veh NR4A2 (11747474_a_at) / RFU ABCC12 (11746883_a_at) / Fold change /veh ABCC12 (11746883_a_at) / RFU TMEM136 (11760407_x_at) / Fold change /veh TMEM136 (11760407_x_at) / RFU CLDN22 /// WWC2 (11732394_at) / Fold change /veh CLDN22 /// WWC2 (11732394_at) / RFU HLA-DPB1 (11760878_x_at) / Fold change /veh HLA-DPB1 (11760878_x_at) / RFU SPINT1 (11716480_a_at) / Fold change /veh SPINT1 (11716480_a_at) / RFU GAP43 (11754022_s_at) / Fold change /veh GAP43 (11754022_s_at) / RFU A4GNT (11735810_at) / Fold change /veh A4GNT (11735810_at) / RFU PRB3 (11715151_x_at) / Fold change /veh PRB3 (11715151_x_at) / RFU TUBB4B (11761932_at) / Fold change /veh TUBB4B (11761932_at) / RFU CAPN14 (11732068_a_at) / Fold change /veh CAPN14 (11732068_a_at) / RFU TMCC2 (11721928_a_at) / Fold change /veh TMCC2 (11721928_a_at) / RFU IRGQ (11745062_a_at) / Fold change /veh IRGQ (11745062_a_at) / RFU FAM174B (11720279_a_at) / Fold change /veh FAM174B (11720279_a_at) / RFU TMPRSS4 (11748680_a_at) / Fold change /veh TMPRSS4 (11748680_a_at) / RFU FAM212B (11763350_a_at) / Fold change /veh FAM212B (11763350_a_at) / RFU PLEKHG5 (11743358_a_at) / Fold change /veh PLEKHG5 (11743358_a_at) / RFU ZSCAN30 (11745921_a_at) / Fold change /veh ZSCAN30 (11745921_a_at) / RFU CMKLR1 (11741424_a_at) / Fold change /veh CMKLR1 (11741424_a_at) / RFU LOC101060620 /// MAPK8IP1 (11723275_at) / Fold change /veh LOC101060620 /// MAPK8IP1 (11723275_at) / RFU SPTSSB (11747773_x_at) / Fold change /veh SPTSSB (11747773_x_at) / RFU PRSS12 (11739890_at) / Fold change /veh PRSS12 (11739890_at) / RFU BIN1 (11741810_x_at) / Fold change /veh BIN1 (11741810_x_at) / RFU WNT11 (11732464_a_at) / Fold change /veh WNT11 (11732464_a_at) / RFU C10orf10 (11716521_a_at) / Fold change /veh C10orf10 (11716521_a_at) / RFU C5orf56 (11738089_at) / Fold change /veh C5orf56 (11738089_at) / RFU CYB561 (11721691_x_at) / Fold change /veh CYB561 (11721691_x_at) / RFU ANKRD19P (11752326_a_at) / Fold change /veh ANKRD19P (11752326_a_at) / RFU OR2T12 /// OR2T33 /// OR2T8 (11738714_s_at) / Fold change /veh OR2T12 /// OR2T33 /// OR2T8 (11738714_s_at) / RFU VCAN (11748164_a_at) / Fold change /veh VCAN (11748164_a_at) / RFU JSRP1 (11732532_at) / Fold change /veh JSRP1 (11732532_at) / RFU KRTAP10-11 (11738290_x_at) / Fold change /veh KRTAP10-11 (11738290_x_at) / RFU MYO3A (11730013_a_at) / Fold change /veh MYO3A (11730013_a_at) / RFU EBF3 (11725865_a_at) / Fold change /veh EBF3 (11725865_a_at) / RFU CAMK2N1 (11719241_x_at) / Fold change /veh CAMK2N1 (11719241_x_at) / RFU C5orf56 (11738088_a_at) / Fold change /veh C5orf56 (11738088_a_at) / RFU OLFML3 (11715873_a_at) / Fold change /veh OLFML3 (11715873_a_at) / RFU LOC100653217 /// NTM (11731650_a_at) / Fold change /veh LOC100653217 /// NTM (11731650_a_at) / RFU MAPK11 (11762145_a_at) / Fold change /veh MAPK11 (11762145_a_at) / RFU FIZ1 (11724087_x_at) / Fold change /veh FIZ1 (11724087_x_at) / RFU OASL (11726364_x_at) / Fold change /veh OASL (11726364_x_at) / RFU SOX15 (11748057_x_at) / Fold change /veh SOX15 (11748057_x_at) / RFU CD79A (11719716_a_at) / Fold change /veh CD79A (11719716_a_at) / RFU HIST1H1D (11736915_at) / Fold change /veh HIST1H1D (11736915_at) / RFU CASKIN2 (11723855_a_at) / Fold change /veh CASKIN2 (11723855_a_at) / RFU LOC730098 (11760151_x_at) / Fold change /veh LOC730098 (11760151_x_at) / RFU OR4N2 (11742367_at) / Fold change /veh OR4N2 (11742367_at) / RFU PRRT2 (11749266_a_at) / Fold change /veh PRRT2 (11749266_a_at) / RFU SNX32 (11753110_a_at) / Fold change /veh SNX32 (11753110_a_at) / RFU CDHR5 (11726645_a_at) / Fold change /veh CDHR5 (11726645_a_at) / RFU RCAN1 (11760418_a_at) / Fold change /veh RCAN1 (11760418_a_at) / RFU FAM167A (11723789_a_at) / Fold change /veh FAM167A (11723789_a_at) / RFU FAM26E (11764081_at) / Fold change /veh FAM26E (11764081_at) / RFU ISYNA1 (11749810_s_at) / Fold change /veh ISYNA1 (11749810_s_at) / RFU ACY1 (11761880_at) / Fold change /veh ACY1 (11761880_at) / RFU 11764098_at / Fold change /veh 11764098_at / RFU SAMD14 (11745864_x_at) / Fold change /veh SAMD14 (11745864_x_at) / RFU NPB (11741838_a_at) / Fold change /veh NPB (11741838_a_at) / RFU TMPRSS6 (11731388_a_at) / Fold change /veh TMPRSS6 (11731388_a_at) / RFU KRTAP10-2 (11738614_at) / Fold change /veh KRTAP10-2 (11738614_at) / RFU ARHGAP8 /// PRR5-ARHGAP8 (11727945_x_at) / Fold change /veh ARHGAP8 /// PRR5-ARHGAP8 (11727945_x_at) / RFU KRTAP5-7 /// NADSYN1 (11734609_at) / Fold change /veh KRTAP5-7 /// NADSYN1 (11734609_at) / RFU RASL12 (11751679_a_at) / Fold change /veh RASL12 (11751679_a_at) / RFU CDKN2B (11736163_a_at) / Fold change /veh CDKN2B (11736163_a_at) / RFU PRF1 (11729649_at) / Fold change /veh PRF1 (11729649_at) / RFU, ZNF638 /// ZNF638-IT1 / Fold change vs veh, ZNF638 /// ZNF638-IT1 / RFU, PANK3 / Fold change vs veh, PANK3 / RFU, SH3YL1 / Fold change vs veh, SH3YL1 / RFU, ZEB2 / Fold change vs veh, ZEB2 / RFU, NRIP1 / Fold change vs veh, NRIP1 / RFU, PTTG1IP / Fold change vs veh, PTTG1IP / RFU, CAPN2 / Fold change vs veh, CAPN2 / RFU, MED14 / Fold change vs veh, MED14 / RFU, SNORA58 / Fold change vs veh, SNORA58 / RFU, C1orf63 / Fold change vs veh, C1orf63 / RFU, LRRFIP1 / Fold change vs veh, LRRFIP1 / RFU, NDUFAF7 / Fold change vs veh, NDUFAF7 / RFU, SLC12A2 / Fold change vs veh, SLC12A2 / RFU, IBTK / Fold change vs veh, IBTK / RFU, ESF1 / Fold change vs veh, ESF1 / Fold change vs veh, TMEM50B / RFU, TAOK1 / Fold change vs veh, TAOK1 / RFU, ACBD3 / Fold change vs veh, ACBD3 / RFU, TMA16 / Fold change vs veh, TMA16 / RFU, RWDD3 / Fold change vs veh, RWDD3 / RFU, BCAT1 / Fold change vs veh, BCAT1 / RFU, EDEM3 / Fold change vs veh, EDEM3 / RFU, TMEM33 / Fold change vs veh, TMEM33 / RFU, WDR75 / Fold change vs veh, WDR75 / RFU, AHCTF1 / Fold change vs veh, AHCTF1 / RFU, TFRC / Fold change vs veh, TFRC / RFU, ZDHHC17 / Fold change vs veh, ZDHHC17 / RFU, NOM1 / Fold change vs veh, NOM1 / RFU, ARL8B / Fold change vs veh, ARL8B / RFU, ZBTB11 / Fold change vs veh, ZBTB11 / RFU, TAMM41 / Fold change vs veh, TAMM41 / RFU, KIAA1704 /// LOC100996395 / Fold change vs veh, KIAA1704 /// LOC100996395 / RFU, ING1 / Fold change vs veh, ING1 / RFU, TRMT61B / Fold change vs veh, TRMT61B / RFU, FUBP3 / Fold change vs veh, FUBP3 / RFU, TP53 / Fold change vs veh, TP53 / RFU, TNKS2 / Fold change vs veh, TNKS2 / RFU, ZFP14 / Fold change vs veh, ZFP14 / RFU, ACTR2 / Fold change vs veh, ACTR2 / RFU, PPP3R1 / Fold change vs veh, PPP3R1 / RFU, PIK3R1 / Fold change vs veh, PIK3R1 / RFU, HNRNPA1 / Fold change vs veh, HNRNPA1 / RFU, RNF170 / Fold change vs veh, RNF170 / RFU, ZNF28 / Fold change vs veh, ZNF28 / RFU, RNGTT / Fold change vs veh, RNGTT / RFU, OGT / Fold change vs veh, OGT / RFU, BRD1 / Fold change vs veh, BRD1 / RFU, MARS / Fold change vs veh, MARS / RFU, ZNF655 / Fold change vs veh, ZNF655 / RFU, FAHD1 / Fold change vs veh, FAHD1 / RFU, BDP1 / Fold change vs veh, BDP1 / RFU, LRRCC1 / Fold change vs veh, LRRCC1 / RFU, ARID1A / Fold change vs veh, ARID1A / RFU, ZNF146 / Fold change vs veh, ZNF146 / RFU, ZNF330 / Fold change vs veh, ZNF330 / RFU, GPN3 / Fold change vs veh, GPN3 / RFU, C9orf123 / Fold change vs veh, C9orf123 / RFU, N4BP2L2 / Fold change vs veh, N4BP2L2 / RFU, ARFIP1 / Fold change vs veh, ARFIP1 / RFU, FAM179B / Fold change vs veh, FAM179B / RFU, BCL10 / Fold change vs veh, BCL10 / RFU, UHRF1BP1L / Fold change vs veh, UHRF1BP1L / RFU, BET1 / Fold change vs veh, BET1 / RFU, CNOT2 / Fold change vs veh, CNOT2 / RFU, ZNF268 / Fold change vs veh, ZNF268 / Fold change vs veh, ZNF507 / RFU, DGCR2 / Fold change vs veh, DGCR2 / RFU, WDSUB1 / Fold change vs veh, WDSUB1 / Fold change vs veh, HSP90B1 /// MIR3652 / RFU, ADSS / Fold change vs veh, ADSS / RFU, GK / Fold change vs veh, GK / RFU, ZNF148 / Fold change vs veh, ZNF148 / RFU, TAF9 / Fold change vs veh, TAF9 / RFU, SLC1A5 / Fold change vs veh, SLC1A5 / RFU, SLMO2 / Fold change vs veh, SLMO2 / RFU, ABCC4 / Fold change vs veh, ABCC4 / RFU, LOC101060439 /// RAP1B / Fold change vs veh, LOC101060439 /// RAP1B / RFU, RFX7 / Fold change vs veh, RFX7 / RFU, GTPBP10 / Fold change vs veh, GTPBP10 / RFU, CNEP1R1 / Fold change vs veh, CNEP1R1 / RFU, BIVM-ERCC5 /// ERCC5 / Fold change vs veh, BIVM-ERCC5 /// ERCC5 / RFU, ILF3 / Fold change vs veh, ILF3 / RFU 11762660_at / Fold change /veh 11762660_at / RFU VCAN (11757783_s_at) / Fold change /veh VCAN (11757783_s_at) / RFU DDX43 (11728927_at) / Fold change /veh DDX43 (11728927_at) / RFU KRT8 (11758188_x_at) / Fold change /veh KRT8 (11758188_x_at) / RFU NKD1 (11759106_at) / Fold change /veh NKD1 (11759106_at) / RFU SRD5A1 (11742802_a_at) / Fold change /veh SRD5A1 (11742802_a_at) / RFU TPSAB1 /// TPSB2 (11721975_s_at) / Fold change /veh TPSAB1 /// TPSB2 (11721975_s_at) / RFU GSTM3 (11746129_a_at) / Fold change /veh GSTM3 (11746129_a_at) / RFU IL23R (11737362_x_at) / Fold change /veh IL23R (11737362_x_at) / RFU TMEM51 (11727254_a_at) / Fold change /veh TMEM51 (11727254_a_at) / RFU PIWIL2 (11732686_x_at) / Fold change /veh PIWIL2 (11732686_x_at) / RFU ORM1 (11744905_x_at) / Fold change /veh ORM1 (11744905_x_at) / RFU CCDC152 (11743942_at) / Fold change /veh CCDC152 (11743942_at) / RFU ECM1 (11717891_a_at) / Fold change /veh ECM1 (11717891_a_at) / RFU IL23R (11748794_a_at) / Fold change /veh IL23R (11748794_a_at) / RFU TNFAIP8L3 (11732012_x_at) / Fold change /veh TNFAIP8L3 (11732012_x_at) / RFU MBOAT4 (11741988_at) / Fold change /veh MBOAT4 (11741988_at) / RFU 11764193_at / Fold change /veh 11764193_at / RFU TMEM53 (11763286_at) / Fold change /veh TMEM53 (11763286_at) / RFU MAGEB2 (11727129_at) / Fold change /veh MAGEB2 (11727129_at) / RFU TMEM200A (11744735_a_at) / Fold change /veh TMEM200A (11744735_a_at) / RFU CCDC152 (11751479_a_at) / Fold change /veh CCDC152 (11751479_a_at) / RFU FAM211A (11726209_a_at) / Fold change /veh FAM211A (11726209_a_at) / RFU RGS16 (11746705_a_at) / Fold change /veh RGS16 (11746705_a_at) / RFU VCAN (11755009_s_at) / Fold change /veh VCAN (11755009_s_at) / RFU RHOB (11743442_s_at) / Fold change /veh RHOB (11743442_s_at) / RFU RGS16 (11720943_a_at) / Fold change /veh RGS16 (11720943_a_at) / RFU RGS16 (11720944_at) / Fold change /veh RGS16 (11720944_at) / RFU, VPS4B / Fold change vs veh, VPS4B / RFU, CREB1 / Fold change vs veh, CREB1 / RFU, DNAJC13 / Fold change vs veh, DNAJC13 / RFU, GNAQ / Fold change vs veh, GNAQ / RFU, CDK5R1 / Fold change vs veh, CDK5R1 / RFU, ZRANB3 / Fold change vs veh, ZRANB3 / RFU, CUL4A / Fold change vs veh, CUL4A / RFU, CCNY / Fold change vs veh, CCNY / RFU, UFL1 / Fold change vs veh, UFL1 / RFU, COG3 / Fold change vs veh, COG3 / RFU, DIAPH2 / Fold change vs veh, DIAPH2 / RFU, SKA2 / Fold change vs veh, SKA2 / RFU, AFF3 / Fold change vs veh, AFF3 / RFU, LMF1 / Fold change vs veh, LMF1 / RFU, IPO11 / Fold change vs veh, IPO11 / RFU, DFFB / Fold change vs veh, DFFB / RFU, FOXP1 / Fold change vs veh, FOXP1 / RFU, CARD8 / Fold change vs veh, CARD8 / RFU, STRN3 / Fold change vs veh, STRN3 / RFU, ADK / Fold change vs veh, ADK / RFU, RASSF2 / Fold change vs veh, RASSF2 / RFU, WIPF1 / Fold change vs veh, WIPF1 / RFU, LARP1B / Fold change vs veh, LARP1B / RFU, RASA1 / Fold change vs veh, RASA1 / RFU, RB1 / Fold change vs veh, RB1 / RFU, PPFIA1 / Fold change vs veh, PPFIA1 / RFU, MAT2A / Fold change vs veh, MAT2A / RFU, CCT5 / Fold change vs veh, CCT5 / RFU, WDR92 / Fold change vs veh, WDR92 / RFU, CUX1 / Fold change vs veh, CUX1 / RFU, TTC7A / Fold change vs veh, TTC7A / RFU, TMEM135 / Fold change vs veh, TMEM135 / RFU, DEPTOR / Fold change vs veh, DEPTOR / RFU, CPM / Fold change vs veh, CPM / RFU, DNAJB6 / Fold change vs veh, DNAJB6 / RFU, CACNA2D3 / Fold change vs veh, CACNA2D3 / RFU, DTX4 / Fold change vs veh, DTX4 / RFU, TFCP2 / Fold change vs veh, TFCP2 / RFU, GMCL1 /// GMCL1P1 / Fold change vs veh, GMCL1 /// GMCL1P1 / RFU, AEBP2 / Fold change vs veh, AEBP2 / RFU, SNHG1 /// SNORD22 /// SNORD25 /// SNORD26 /// SNORD27 /// SNORD28 /// SNORD29 /// SNORD31 / Fold change vs veh, SNHG1 /// SNORD22 /// SNORD25 /// SNORD26 /// SNORD27 /// SNORD28 /// SNORD29 /// SNORD31 / Fold change (Aza/veh), C12orf56 (ProbeSet 11735607_a_at) / Fold change (ACY-1035/veh), C12orf56 (ProbeSet 11735607_a_at) / Fold change (Aza/veh), FGFR1OP (ProbeSet 11751329_s_at) / Fold change (ACY-1035/veh), FGFR1OP (ProbeSet 11751329_s_at) / Fold change (Aza/veh), VPS36 (ProbeSet 11739960_a_at) / Fold change (ACY-1035/veh), VPS36 (ProbeSet 11739960_a_at) / RFU SYPL1 (11715823_x_at) / Fold change /veh SYPL1 (11715823_x_at) / RFU IGFBP7 (11715501_s_at) / Fold change /veh IGFBP7 (11715501_s_at) / RFU REEP3 (11722064_at) / Fold change /veh REEP3 (11722064_at) / RFU IGLL1 (11728026_x_at) / Fold change /veh IGLL1 (11728026_x_at): dose or concentration left out as unconfirmed
Settings: MV-4-11 cells, 48 hours

In the case of `Nc1ccc(-c2cccs2)cc1NC(=O)c1ccc2c(c1)cc(C1CC1)n2CCN1CCOCC1` [ACY-1035], the “RFU IL23R (11737362_x_at)” value is reported as 7.94 RFU.
